Assay results published in patent US9155691B2, “Composition for reducing skin wrinkles including PDE5 inhibitor” (SK Chemicals Co., Ltd., priority 2010, dated 2015).

Key:
[1] = tested on: UVB-induced skin wrinkles of hairless mice; experiment: Wrinkle reduction in the skin of UVB-irradiated hairless mice (photographs); assay type: in vivo
Procedure: An examination was made as to whether the PDE5 inhibitors can substantially reduce skin wrinkles of animal models. Hairless mice, aged 7 weeks, were irradiated with UVB (290-320 nm, 312 nm) to induce wrinkles. The compound or the control was applied to each mouse and its influence on the induced wrinkles was evaluated. More specifically, the mice were irradiated with 60 mJ/cm^2 (1 minimal […] dose (MED)) for 3 days weekly during the first and second week after wrinkling, 120 mJ/cm^2 (2 MED) for 3 days during the third week after wrinkling, 180 mJ/cm^2 (3 MED) for 3 days during the fourth week after wrinkling, 240 mJ/cm^2 (4 MED) for 3 days weekly during the fifth to eighth week after wrinkling, and 240 mJ/cm^2 (4 MED) for 5 days weekly during the ninth to fifteenth week after wrinkling. During the sixteenth and seventeenth week after wrinkling, about 0.5 ml of squalene-OOH, an oxidation product of squalene by UV irradiation, was applied once using a brush to induce deeper wrinkles. […]

[2] = tested on: Normal human dermal fibroblasts (NHDFs); experiment: Stimulatory effect on collagen production: synthesis rate of procollagen type I (C-peptide EIA, corrected for total protein); assay type: cell-based; details: NHDF, 48 hr, negative control 100.0±0.0%
Procedure: In this example, stimulatory effects of major PDE5 inhibitors on collagen production were investigated in order to determine whether the PDE5 inhibitors are effective in reducing skin wrinkles. Collagen is a very important substance involved in the regulation of wrinkles. Collagen disruption is known to lead to the formation of wrinkles. Collagen production plays an important role in the reduction of wrinkles.
Normal human dermal fibroblasts (NHDFs) were cultured in a complete medium. 400 μl (1×10^5 cells) of the NHDF culture was placed in each well of a 48-well plate and were cultured in an incubator (MCO-20 AIC, Sanyo, Japan) at 37 C.° and 5% CO2 for 24 hr. After completion of culturing, the culture fluid was discarded from the wells. 500 μl of D-phosphate buffered saline (D-PBS) was added to each well for washing. Thereafter, 800 μl of a test substance and 800 μl of a positive control were added to the corresponding wells. 800 μl of a serum-free medium supplemented with DMSO was added to the wells of a negative control. The culture was continued in an incubator at 37 C.° and 5% CO2 for 48 hr. After culturing was completed, the culture fluids were collected from the wells, followed by centrifugation (25 C.°, 3,000 rpm, 10 min). The supernatants were used for the quantification of procollagen type I. After 1 mL of D-PBS was added to each well of the plate, from which the culture fluids had been removed, for washing, 30 μl of a cell lysis buffer (Lot No.: 41, Cell Signaling Technology, U.S.A) was added to each well. The plate was frozen during storage in a deep freezer (DFU-657CL, Operon, Korea) at −70 C.° for 2 hr, and thawed at room temperature. The freeze-thaw procedure was repeated twice to lyse the cells. Each of the cell lysates was collected and centrifuged (Micro 17TR, Hanil Science Industrial, Korea) (4 C.°, 13000 rpm, 30 min). The supernatant was used for total protein quantification.
40 μl of the obtained supernatant was added to each well of a 96-well plate. A standard solution from a BCA protein assay kit (Lot No.: KK140637, Pierce Biotechnology Inc., USA) was diluted stepwise to different concentrations (250, 125, 50, 25, 5 and 0 μg/mL). 40 μl of the dilute solution was added to each well. 160 μl of a reagent mixture from the assay kit was added to each well. Thereafter, the resulting mixtures were allowed to react in an incubator (NB-201V, n-Biotec, Korea) at 60 C.° for 30 min. After completion of the reaction, the absorbance of each well was measured at 562 nm using an ELISA reader (PowerWave XS, BioTek Instruments, Inc., USA). The amounts of total proteins in the wells containing the test substance, the positive control and the negative control were determined by substituting the absorbance value of each well into the standard curve equation.
100 μl of the obtained supernatant was added to each well of a 96-well plate from a procollagen type I C-peptide EIA kit (Lot No.: AB01520C, Takara Bio Inc., Japan). A standard solution from the kit was diluted stepwise to different concentrations (640, 320, 160, 80, 40, 20, 10 and 0 ng/mL). 100 μl of the dilute solution was added to each well. Thereafter, the resulting mixtures were allowed to react in an incubator at 37 C.° for 2 hr. The reaction solution was discarded from each well. The well was washed with 400 μl of PBS (×3). 100 μl of solution 1 from the kit was added to each well. The reaction was carried out at 37 C.° for 1 hr. After completion of the reaction, the reaction solution was discarded from each well and 400 μl of PBS was added to the well for washing (×4). 100 μl of a tetramethylbenzidine (TMBZ) substrate solution from the kit was added to each well. The reaction was carried out at 30 C.° for 15 min. Thereafter, 100 μl of 1 N H2SO4 solution was added to each well to stop the reaction. The absorbance of each well was measured at 450 nm using an ELISA reader. […]

[3] = 10 mM (about 5%), applied to skin twice daily for 14 days, n=7

## CCCc1nn(C)c2c(=O)[nH]c(-c3cc(S(=O)(=O)N4CCN(C)CC4)ccc3OCC)nc12 [sildenafil]
[1]; [3]
  Skin condition after application: gradually became clean
  Wrinkle reduction (skin photographs): Wrinkle reduction was observed
[2]; 10 nM, mean of three repeats
  Synthesis rate of procollagen type I: 108.6±8.1%
[2]; 100 nM, p<0.01
  Synthesis rate of procollagen type I: 160.7±12.1%

## CCCc1nc(C)c2c(=O)[nH]c(-c3cc(S(=O)(=O)N4CCN(CC)CC4)ccc3OCC)nn12 [vardenafil]
[2]; 10 nM, mean of three repeats
  Synthesis rate of procollagen type I: 140.7±7.8%
[2]; 100 nM, p<0.01
  Synthesis rate of procollagen type I: 162.7±10.0%

## CN1CC(=O)N2[C@H](c3ccc4c(c3)OCO4)c3[nH]c4ccccc4c3C[C@@H]2C1=O [tadalafil]
[2]; 10 nM, mean of three repeats
  Synthesis rate of procollagen type I: 147.2±8.1%
[2]; 100 nM, p<0.01
  Synthesis rate of procollagen type I: 174.7±10.2%

## CC1=C(/C=C/C(C)=C/C=C/C(C)=C/C(=O)O)C(C)(C)CCC1 [retinoic acid]
[1]; 0.05%, applied to skin twice, later once daily, n=6
  Skin condition after application (cornified layers): Cornified layers were formed and continuously peeled
